According to patent US9358225B2, “Method for treating neurodegeneration using a p38MAPK inhibitor” (Bach Pharma, Inc., priority 2013, dated 2016):

Tested on: Atm−/− mice
Assay: Modified rotarod behavioral test
Type: in vivo, mouse
Conditions: P90, after treatment, vs PBS-treated Atm−/− and Atm+/+
Text: The Atm−/− mice were originally generated by Dr. C. Barlow (Barlow et al., 1996). They were purchased from the Jackson Laboratory (Bar Harbor, Me.). Offspring of Atm+/− breeders were genotyped using real-time polymerase chain reaction-based assays of mouse tail DNA. Atm mice (1-month old) were divided into 3 groups: PBS-treated Atm+/+ mice (n=10/group); PBS-treated Atm−/− mice (n=9/group); and SB203580 (4-[5-(4-Fluorophenyl)-2-[4-(methylsulphonyl)phenyl]-1H-imidazol-4-yl]pyridine) treated Atm−/− mice (n=10/group). Mice were intraperitoneally injected with either PBS or SB203580 (4-[5-(4-Fluorophenyl)-2-[4-(methylsulphonyl)phenyl]-1H-imidazol-4-yl]pyridine) (5 mg/kg body weight) at 2-day intervals for 2 months. Animals were sacrificed one day after the last administration. Animal care was in accordance with The University of Texas MD Anderson Cancer Center guidelines for animal experiments.
We have devised a modified version of the standardized rotarod protocol (Columbus Instruments, Columbus, Ohio). […] Following training, three trials of mouse motor coordination were assessed by measuring the time before falling off the rotarod moving at 25 rpm.
Each experiment, including behavioral test, body weight measure and qRT-PCR was repeated at least three times. The proportion of mRNA expression was analyzed from a series of tissue sections. […]

SMILES	rotarod performance (time before falling off at 25 rpm)
CC1(C)c2ccc(C(=O)O)cc2C(C)(C)N1[O] [CTMIO, 5-carboxy-1,1,3,3-tetramethylisoindolin-2-yloxyl]	stayed on the rod as long as did Atm+/+ mice
CC(=O)N[C@@H](CS)C(=O)O [NAC, N-acetyl-L-cysteine]	stayed on the rod as long as did Atm+/+ mice
